From DBAASP
Converted amounts (≈) assume the structure as drawn.

Tests used:
Assay in all cases: ≥ marks a high value that may be exact or a test limit, other limits are often not marked, values filed in µg/mL are converted to µM
[1] = system: Bacillus subtilis KCTC 1918
[2] = system: Escherichia coli KCTC 1682
[3] = system: Pseudomonas aeruginosa KCTC 1637
[4] = system: Salmonella typhimurium KCTC 1926
[5] = system: Staphylococcus aureus KCTC 1621
[6] = system: Streptococcus pyogenes KCTC 3096
Bacillus subtilis 168 = system: Bacillus subtilis 168
Escherichia coli B = system: Escherichia coli B
Pseudomonas aeruginosa = system: Pseudomonas aeruginosa
Staphylococcus aureus = system: Staphylococcus aureus
Alternaria alternata = system: Alternaria alternata
Botrytis cinerea = system: Botrytis cinerea
Cladosporium herbarum = system: Cladosporium herbarum
[7] = system: Clavibacter michiganensis subsp. michiganensis DSM 46294
[8] = system: Pectobacterium carotovorum subsp. carotovorum DSM 30168
[9] = system: Pseudomonas corrugata DSM 7228
[10] = system: Pseudomonas syringae pv. syringae DSM 10604
[11] = system: Pseudomonas syringae pv. tomato DC3000
[12] = system: Xanthomonas vesicatoria DSM 50861
[13] = system: Batrachochytrium dendrobatidis JEL-197
[14] = system: Escherichia coli ATCC 25726
[15] = system: Staphylococcus aureus ATCC 25923
[16] = system: Candida albicans ATCC 10231
[17] = system: Cryptococcus neoformans ATCC 32264
Fusarium solani = system: Fusarium solani
[18] = system: Micrococcus luteus ATCC 9341
[19] = system: Pseudomonas aeruginosa ATCC 9027
[20] = system: Staphylococcus aureus ATCC 6538
[21] = system: Candida albicans ATCC 90028
[22] = system: Escherichia coli ATCC 25922
[23] = system: Staphylococcus aureus NCTC 8325
[24] = system: Candida albicans NCPF 1467
[25] = system: Escherichia coli NCTC 10418
[26] = system: Staphylococcus aureus NCTC 10788

## CC[C@H](C)[C@H](NC(=O)[C@H](CCCCN)NC(=O)[C@H](CCCCN)NC(=O)[C@H](Cc1ccccc1)NC(=O)[C@H](CC(C)C)NC(=O)[C@H](CCCCN)NC(=O)[C@H](Cc1c[nH]c2ccccc12)NC(=O)[C@@H](N)CCCCN)C(=O)N[C@@H](CCCCN)C(=O)N[C@@H](Cc1ccccc1)C(=O)N[C@@H](CC(C)C)C(=O)N[C@@H](Cc1cnc[nH]1)C(=O)N[C@@H](CO)C(=O)N[C@@H](C)C(=O)N[C@@H](CCCCN)C(=O)N[C@@H](CCCCN)C(=O)N[C@@H](Cc1ccccc1)C(N)=O [KWKLFKKIKFLHSAKKF]
[1]
  MIC: 1.56 µM (≈ 3.4 µg/mL)
[2]
  MIC: 6.25 µM (≈ 13.6 µg/mL)
[3]
  MIC: 1.56 µM (≈ 3.4 µg/mL)
[4]
  MIC: 0.78 µM (≈ 1.7 µg/mL)
[5]
  MIC: 3.12 µM (≈ 6.8 µg/mL)
[6]
  MIC: 0.78 µM (≈ 1.7 µg/mL)

## CC[C@H](C)[C@H](NC(=O)[C@H](CCCCN)NC(=O)[C@H](CCCCN)NC(=O)[C@H](CC(C)C)NC(=O)[C@H](CC(C)C)NC(=O)[C@H](CO)NC(=O)[C@H](CCSC)NC(=O)[C@H](Cc1c[nH]c2ccccc12)NC(=O)[C@H](CCCCN)NC(=O)CN)C(=O)N[C@@H](CC(C)C)C(=O)N[C@@H](CCCCN)C(N)=O [GKWMSLLKKILK]
Bacillus subtilis 168
  MIC: 1.2 µM (≈ 1.73 µg/mL)
Escherichia coli B
  MIC: 2.7 µM (≈ 3.9 µg/mL)
Pseudomonas aeruginosa
  MIC: 13.8 µM (≈ 19.9 µg/mL)
Staphylococcus aureus
  MIC: 6.3 µM (≈ 9.1 µg/mL)

## CC[C@H](C)[C@H](NC(=O)[C@H](CC(C)C)NC(=O)[C@@H](N)CC(C)C)C(=O)N[C@@H](C)C(=O)N[C@@H](C)C(=O)N[C@@H](Cc1ccccc1)C(=O)N[C@@H](CCCCN)C(=O)N[C@@H](CCCCN)C(=O)N[C@@H](CC(C)C)C(=O)N[C@H](C(=O)N[C@@H](CCCCN)C(=O)N[C@@H](CCCCN)C(N)=O)C(C)C [LLIAAFKKLVKK]
Alternaria alternata
  MIC: ≥ 72.9 µM
Botrytis cinerea
  MIC: ≥ 72.9 µM
Cladosporium herbarum
  MIC: ≥ 72.9 µM
[7]
  MIC: 14.6 µM (≈ 20 µg/mL)
[8]
  MIC: 29.2 µM (≈ 40 µg/mL)
[9]
  MIC: 29.2 µM (≈ 40 µg/mL)
[10]
  MIC: 29.2 µM (≈ 40 µg/mL)
[11]
  MIC: 29.2 µM (≈ 40 µg/mL)
[12]
  MIC: 29.2 µM (≈ 40 µg/mL)

## CC[C@H](C)[C@H](NC(=O)CN)C(=O)N[C@@H](CC(C)C)C(=O)N[C@@H](CO)C(=O)N[C@@H](CO)C(=O)N[C@@H](Cc1ccccc1)C(=O)N[C@@H](CCCCN)C(=O)N[C@@H](CC(=O)O)C(=O)N[C@H](C(=O)N[C@@H](C)C(=O)N[C@@H](CCCCN)C(=O)NCC(=O)N[C@H](C(=O)N[C@@H](C)C(=O)N[C@@H](CCCCN)C(=O)N[C@@H](CC(N)=O)C(=O)N[C@H](C(=O)N[C@@H](C)C(=O)N[C@@H](C)C(=O)N[C@@H](CCC(N)=O)C(=O)N[C@@H](CC(C)C)C(=O)N[C@@H](CC(C)C)C(=O)N[C@@H](CC(=O)O)C(=O)N[C@@H](CCCCN)C(=O)N[C@@H](CC(C)C)C(=O)N[C@@H](CCCCN)C(=O)N[C@H]1CSSC[C@@H](C(=O)O)NC(=O)CNC(=O)[C@H]([C@@H](C)O)NC(=O)[C@H]([C@@H](C)CC)NC(=O)[C@H](CCCCN)NC1=O)C(C)C)C(C)C)C(C)C [GILSSFKDVAKGVAKNVAAQLLDKLKCKITGC]
[13]
  MIC: ≥ 50 µM
[14]
  MIC: 10 µM (≈ 33.2 µg/mL)
[15]
  MIC: 20 µM (≈ 66.4 µg/mL)

## NCCCC[C@H](NC(=O)[C@H](CCCCN)NC(=O)[C@H](Cc1c[nH]c2ccccc12)NC(=O)[C@H](CCCCN)NC(=O)[C@H](CCCN=C(N)N)NC(=O)[C@H](CCCN=C(N)N)NC(=O)[C@H](Cc1c[nH]c2ccccc12)NC(=O)[C@H](CCCCN)NC(=O)[C@@H](N)CCCN=C(N)N)C(N)=O [RKWRRKWKK]
[16]
  MIC: 200 µM (≈ 274 µg/mL)
[17]
  MIC: ≥ 200 µM

## CC[C@H](C)[C@H](N)C(=O)N[C@@H](CC(C)C)C(=O)N1CCC[C@H]1C(=O)N[C@@H](Cc1c[nH]c2ccccc12)C(=O)N[C@@H](CCCCN)C(=O)N[C@@H](Cc1c[nH]c2ccccc12)C(=O)N1CCC[C@H]1C(=O)N[C@@H](Cc1c[nH]c2ccccc12)C(=O)N[C@@H](Cc1c[nH]c2ccccc12)C(=O)N1CCC[C@H]1C(=O)N[C@@H](Cc1c[nH]c2ccccc12)C(=O)N[C@@H](CCCNC(=N)N)C(=O)N[C@@H](CCCNC(=N)N)C(=O)O [ILPWKWPWWPWRR]
Alternaria alternata
  MIC: 16.8 µM (≈ 32 µg/mL)
Botrytis cinerea
  MIC: 16.8 µM (≈ 32 µg/mL)
Cladosporium herbarum
  MIC: ≥ 33.6 µM
[7]
  MIC: 0.524 µM (≈ 1 µg/mL)
Fusarium solani
  MIC: 4.19 µM (≈ 8 µg/mL)
[18]
  MIC: 1.6 µM (≈ 3.05 µg/mL)
[8]
  MIC: ≥ 33.6 µM
[19]
  MIC: > 105 µM
[9]
  MIC: ≥ 33.6 µM
[10]
  MIC: ≥ 33.6 µM
[11]
  MIC: ≥ 33.6 µM
[20]
  MIC: 5.24 µM (≈ 10 µg/mL)
[12]
  MIC: 1.05 µM (≈ 2 µg/mL)

## NC(=O)CC[C@H](NC(=O)[C@H](Cc1c[nH]c2ccccc12)NC(=O)[C@H](CCCN=C(N)N)NC(=O)[C@H](CCCN=C(N)N)NC(=O)[C@H](Cc1c[nH]c2ccccc12)NC(=O)[C@H](Cc1c[nH]c2ccccc12)NC(=O)[C@H](CCCN=C(N)N)NC(=O)[C@@H](N)Cc1c[nH]c2ccccc12)C(=O)N[C@@H](CCCN=C(N)N)C(N)=O [WRWWRRWQR]
[16]
  MIC: 50 µM (≈ 75.7 µg/mL)
[17]
  MIC: 25 µM (≈ 37.9 µg/mL)

## CC[C@H](C)[C@H](NC(=O)[C@@H]1CCCN1C(=O)[C@H](CC(C)C)NC(=O)[C@@H](N)Cc1ccccc1)C(=O)N[C@@H](CC(C)C)C(=O)N[C@@H](C)C(=O)N[C@@H](CO)C(=O)N[C@@H](CC(C)C)C(=O)N[C@@H](C)C(=O)N[C@@H](C)C(=O)N[C@@H](CCCCN)C(=O)N[C@@H](CC(C)C)C(=O)NCC(=O)N1CCC[C@H]1C(=O)N[C@@H](CCCCN)C(=O)N[C@@H](CC(C)C)C(=O)N[C@@H](Cc1ccccc1)C(=O)N[C@H]1CSSC[C@@H](C(=O)O)NC(=O)[C@H](CCCCN)NC(=O)[C@H](CCCCN)NC(=O)[C@H]([C@@H](C)O)NC(=O)[C@H](C(C)C)NC(=O)[C@H](CC(C)C)NC1=O [FLPILASLAAKLGPKLFCLVTKKC]
[13]
  MIC: 6.25 µM (≈ 16.1 µg/mL)
[21]
  MIC: 16 µM (≈ 41.2 µg/mL)
[22]
  MIC: 16 µM (≈ 41.2 µg/mL)
[23]
  MIC: 4 µM (≈ 10.3 µg/mL)

## CC[C@H](C)[C@H](NC(=O)CNC(=O)[C@H](CO)NC(=O)[C@H](C)NC(=O)[C@@H](NC(=O)[C@H](Cc1cnc[nH]1)NC(=O)[C@@H]1CCCN1C(=O)[C@H](CC(C)C)NC(=O)[C@H](CC(C)C)NC(=O)[C@H](CO)NC(=O)[C@H](CC(C)C)NC(=O)[C@@H](N)Cc1ccccc1)[C@@H](C)CC)C(=O)N[C@@H](C)C(=O)N[C@@H](CO)C(=O)N[C@@H](CC(C)C)C(=O)N[C@H](C(=O)N[C@@H](CO)C(=O)N[C@@H](CCCCN)C(=O)N[C@@H](Cc1ccccc1)C(N)=O)C(C)C [FLSLLPHIASGIASLVSKF]
[24]
  MIC: 15 µM (≈ 30 µg/mL)
[25]
  MIC: ≥ 200 µM
[26]
  MIC: 5 µM (≈ 10 µg/mL)
